Measured values published in patent publication US20180215727A1, “LYSYL OXIDASE-LIKE 2 INHIBITORS AND USES THEREOF” (PharmAkea, Inc., priority 2015, published 2018).
Structures can show the parent of a compound that is named as a salt.

These compounds were tested against T1, human LOXL2 (Homo sapiens, UniProt Q9Y4K0) (assay: Human LOXL2 Amine Oxidase Activity Assay (Amplex Red fluorescence)). Settings: concentrated conditioned media from CHO cells stably expressing human LOXL2, test compound incubated 2 h at 37° C., pH8, DAP substrate.
T1 construct: expressed in transfected cells; secreted protein in 10-20x concentrated conditioned media
T1 sequence (Q9Y4K0 26-774): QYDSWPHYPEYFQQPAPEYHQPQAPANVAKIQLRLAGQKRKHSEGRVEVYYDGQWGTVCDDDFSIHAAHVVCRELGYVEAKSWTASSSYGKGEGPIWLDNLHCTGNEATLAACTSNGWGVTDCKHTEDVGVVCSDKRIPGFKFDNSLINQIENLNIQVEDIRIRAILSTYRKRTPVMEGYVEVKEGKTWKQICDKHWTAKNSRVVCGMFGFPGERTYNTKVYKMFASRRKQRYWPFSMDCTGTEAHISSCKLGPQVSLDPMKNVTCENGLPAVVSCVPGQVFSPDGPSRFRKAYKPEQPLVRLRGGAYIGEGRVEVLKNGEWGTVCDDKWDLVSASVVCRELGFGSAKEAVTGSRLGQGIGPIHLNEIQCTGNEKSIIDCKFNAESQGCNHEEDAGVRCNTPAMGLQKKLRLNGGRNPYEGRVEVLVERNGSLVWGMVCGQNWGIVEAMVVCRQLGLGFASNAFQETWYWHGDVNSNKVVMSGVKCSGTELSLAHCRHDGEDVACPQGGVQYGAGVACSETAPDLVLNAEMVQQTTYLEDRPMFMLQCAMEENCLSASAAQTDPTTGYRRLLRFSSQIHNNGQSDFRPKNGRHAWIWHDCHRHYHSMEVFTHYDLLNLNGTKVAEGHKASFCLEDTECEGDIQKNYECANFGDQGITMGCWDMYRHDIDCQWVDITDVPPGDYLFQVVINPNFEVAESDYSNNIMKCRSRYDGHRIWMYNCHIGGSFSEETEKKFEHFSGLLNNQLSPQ
Type: biochemical
Experimental: Example B-1: Human LOXL2 Amine Oxidase Activity Assay
LOXL2 amine oxidase activity is evaluated by measuring Amplex Red fluorescence using 10-20× concentrated conditioned media from CHO cells stably expressing human LOXL2. To assay for amine oxidase activity, 10 μL of the concentrated conditioned media is incubated with 2 μL of test compound in DMSO and 73 μL Assay Buffer (50 mM Borate Buffer, pH8) for 2 h at 37° C. After the 2 h incubation, 5 μl of 10 mM 1,5-Diaminopentane (DAP) diluted in Assay Buffer and 10 μl of Amplex Red Mix (8.5 μl Assay Buffer+0.5 μl of 10 mM Amplex Red+1 μl of 500 U/ml Horseradish Peroxidase) are added and the plate mixed and immediately placed on the FlexStaion for fluorescence measurements. Fluorescence is read in kinetic mode every 2 min for 1 hour at excitation=544 and emission=590. The amine oxidase activity is calculated from the slope of the linear portion of the curve.
`NCc1cc(=O)c2cc(C(=O)N3C[C@@H](O)[C@H](F)C3)ccc2o1` (racemic) [Compound 1-25, Racemic-trans-2-(aminomethyl)-6-(3-fluoro-4-hydroxypyrrolidine-1-carbonyl)-4H-chromen-4-one hydrochloride] was tested, and the IC50 was 300 to 1000 nM.
In the case of `NCc1cc(=O)c2cc(C(=O)N3CCC(C(=O)O)C3)ccc2o1` (single isomer, unassigned) [Compound 1-37, (R) or (S)-1-(2-(Aminomethyl)-4-oxo-4H-chromene-6-carbonyl)pyrrolidine-3-carboxylic Acid hydrochloride], the IC50 is reported as over 1000 nM.
`NCc1cc(=O)c2cc(C(=O)N3CCC(C(=O)O)C3)ccc2o1` (single isomer, unassigned) [Compound 1-38, (R) or (S)-1-(2-(Aminomethyl)-4-oxo-4H-chromene-6-carbonyl)pyrrolidine-3-carboxylic Acid hydrochloride] was tested, and the IC50 was over 1000 nM.
With `NCc1cc(=O)c2cc(Br)ccc2o1` [Compound 1-1, 2-(Aminomethyl)-6-bromo-4H-chromen-4-one hydrochloride] the IC50 was under 300 nM.
`NCc1cc(=O)c2ccc(Br)cc2o1` [Compound 1-2, 2-(Aminomethyl)-7-bromo-4H-chromen-4-one hydrochloride] gave an IC50 of under 300 nM.
`C#Cc1ccc2oc(CN)cc(=O)c2c1` [Compound 1-3, 2-(Aminomethyl)-6-ethynyl-4H-chromen-4-one hydrochloride] gave an IC50 of under 300 nM.
Compound `CC(C)(O)C#Cc1ccc2oc(CN)cc(=O)c2c1` [Compound 1-4, 2-(Aminomethyl)-6-(3-hydroxy-3-methylbut-1-yn-1-yl)-4H-chromen-4-one hydrochloride] has an IC50 of under 300 nM.
With `C=C(C)C#Cc1ccc2oc(CN)cc(=O)c2c1` [Compound 1-5, 2-(Aminomethyl)-6-(3-methylbut-3-en-1-yn-1-yl)-4H-chromen-4-one trifluoroacetate] the IC50 was under 300 nM.
Work on `NCc1cc(=O)c2cc(-c3ccccc3)ccc2o1` [Compound 1-6, 2-(Aminomethyl)-6-phenyl-4H-chromen-4-one hydrochloride] yielded an IC50 of under 300 nM.
Compound `NCc1cc(=O)c2cc(-c3ccccn3)ccc2o1` [Compound 1-7, 2-(Aminomethyl)-6-(pyridin-2-yl)-4H-chromen-4-one hydrochloride] has an IC50 of under 300 nM.
In the case of `NCc1cc(=O)c2cc(-c3cccnc3)ccc2o1` [Compound 1-8, 2-(Aminomethyl)-6-(pyridin-3-yl)-4H-chromen-4-one hydrochloride], the IC50 is reported as under 300 nM.
With `NCc1cc(=O)c2cc(-c3cnc4ccccc4c3)ccc2o1` [Compound 1-9, 2-(Aminomethyl)-6-(quinolin-3-yl)-4H-chromen-4-one hydrochloride] the IC50 was under 300 nM.
`NCc1cc(=O)c2cc(-n3cccn3)ccc2o1` [Compound 1-10, 2-(Aminomethyl)-6-(1H-pyrazol-1-yl)-4H-chromen-4-one hydrochloride] was tested, and the IC50 was under 300 nM.
`NCc1cc(=O)c2ccc(-n3cccn3)cc2o1` [Compound 1-11, 2-(Aminomethyl)-7-(1H-pyrazol-1-yl)-4H-chromen-4-one hydrochloride] showed an IC50 of under 300 nM.
In the case of `Cn1cc(-c2ccc3oc(CN)cc(=O)c3c2)cn1` [Compound 1-12, 2-(Aminomethyl)-6-(1-methyl-1H-pyrazol-4-yl)-4H-chromen-4-one hydrochloride], the IC50 is reported as under 300 nM.
For `Cn1cc(-c2ccc3oc(CN)cc(=O)c3c2)nn1` [Compound 1-13, 2-(Aminomethyl)-6-(1-methyl-1H-1,2,3-triazol-4-yl)-4H-chromen-4-one hydrochloride], the IC50 was under 300 nM.
In the case of `NCc1cc(=O)c2cc(-c3cn(-c4ccccc4)nn3)ccc2o1` [Compound 1-14, 2-(Aminomethyl)-6-(1-phenyl-1H-1,2,3-triazol-4-yl)-4H-chromen-4-one hydrochloride], the IC50 is reported as under 300 nM.
Compound `NCc1cc(=O)c2cc(-c3cn(Cc4ccccc4)nn3)ccc2o1` [Compound 1-15, 2-(Aminomethyl)-6-(1-benzyl-1H-1,2,3-triazol-4-yl)-4H-chromen-4-one hydrochloride] has an IC50 of under 300 nM.
For `NCc1cc(=O)c2cc(-c3cn(CCO)nn3)ccc2o1` [Compound 1-16, 2-(Aminomethyl)-6-(1-(2-hydroxyethyl)-1H-1,2,3-triazol-4-yl)-4H-chromen-4-one hydrochloride], the IC50 was 300 to 1000 nM.
`CN(C)C(=O)Cn1cc(-c2ccc3oc(CN)cc(=O)c3c2)nn1` [Compound 1-17, 2-(4-(2-(Aminomethyl)-4-oxo-4H-chromen-6-yl)-1H-1,2,3-triazol-1-yl)-N,N-dimethylacetamide hydrochloride] was tested, and the IC50 was under 300 nM.
`CN(C)C(=O)c1ccc2oc(CN)cc(=O)c2c1` [Compound 1-18, 2-(Aminomethyl)-N,N-dimethyl-4-oxo-4H-chromene-6-carboxamide hydrochloride] showed an IC50 of over 1000 nM.
`NCc1cc(=O)c2cc(C(=O)N3CCCCC3)ccc2o1` [Compound 1-19, 2-(Aminomethyl)-6-(piperidine-1-carbonyl)-4H-chromen-4-one hydrochloride] gave an IC50 of 300 to 1000 nM.
`NCc1cc(=O)c2cc(N3CC[C@H](O)C3)ccc2o1` [Compound 1-20, (S)-2-(Aminomethyl)-6-(3-hydroxypyrrolidin-1-yl)-4H-chromen-4-one hydrochloride] was tested, and the IC50 was 300 to 1000 nM.
`NCc1cc(=O)c2cc(C(=O)NCCn3cncn3)ccc2o1` [Compound 1-21, N-(2-(1H-1,2,4-Triazol-1-yl)ethyl)-2-(aminomethyl)-4-oxo-4H-chromene-6-carboxamide hydrochloride] gave an IC50 of 300 to 1000 nM.
`NCc1cc(=O)c2cc(C(=O)NCCS(N)(=O)=O)ccc2o1` [Compound 1-22, 2-(Aminomethyl)-4-oxo-N-(2-sulfamoylethyl)-4H-chromene-6-carboxamide hydrochloride] gave an IC50 of 300 to 1000 nM.
Compound `NCc1cc(=O)c2cc(C(=O)N3CC[C@@H](N)C3)ccc2o1` [Compound 1-23, (R)-2-(Aminomethyl)-6-(3-aminopyrrolidine-1-carbonyl)-4H-chromen-4-one dihydrochloride] has an IC50 of 300 to 1000 nM.
`COC(=O)[C@@H]1CCN(C(=O)c2ccc3oc(CN)cc(=O)c3c2)C1` [Compound 1-24, Methyl (R)-1-(2-(aminomethyl)-4-oxo-4H-chromene-6-carbonyl)pyrrolidine-3-carboxylate hydrochloride] showed an IC50 of 300 to 1000 nM.
`CS(=O)(=O)CCNC(=O)c1ccc2oc(CN)cc(=O)c2c1` [Compound 1-26, 2-(Aminomethyl)-N-(2-(methylsulfonyl)ethyl)-4-oxo-4H-chromene-6-carboxamide hydrochloride] was tested, and the IC50 was 300 to 1000 nM.
Compound `COc1ccc2oc(CN)cc(=O)c2c1` [Compound 1-27, 2-(Aminomethyl)-6-methoxy-4H-chromen-4-one hydrochloride] has an IC50 of under 300 nM.
In the case of `COc1ccc2c(=O)cc(CN)oc2c1` [Compound 1-28, 2-(Aminomethyl)-7-methoxy-4H-chromen-4-one hydrochloride], the IC50 is reported as under 300 nM.
`NCc1cc(=O)c2ccc(OCc3ccccc3)cc2o1` [Compound 1-29, 2-(Aminomethyl)-7-(benzyloxy)-4H-chromen-4-one hydrochloride] gave an IC50 of under 300 nM.
In the case of `NCc1cc(=O)c2cc(OCc3ccccc3)ccc2o1` [Compound 1-30, 2-(Aminomethyl)-6-(benzyloxy)-4H-chromen-4-one hydrochloride], the IC50 is reported as under 300 nM.
Work on `C#Cc1ccc2c(=O)cc(CN)oc2c1` [Compound 1-31, 2-(aminomethyl)-7-ethynyl-4H-chromen-4-one hydrochloride] yielded an IC50 of 300 to 1000 nM.
Work on `CN(C)C(=O)COc1ccc2c(=O)cc(CN)oc2c1` [Compound 1-32, 2-((2-(Aminomethyl)-4-oxo-4H-chromen-7-yl)oxy)-N,N-dimethylacetamide hydrochloride] yielded an IC50 of 300 to 1000 nM.
`NCc1cc(=O)c2ccc(-c3cn(-c4ccccc4)nn3)cc2o1` [Compound 1-33, 2-(Aminomethyl)-7-(1-phenyl-1H-1,2,3-triazol-4-yl)-4H-chromen-4-one hydrochloride] showed an IC50 of under 300 nM.
`NCc1cc(=O)c2cc(OCC(=O)O)ccc2o1` [Compound 1-34, 2-((2-(Aminomethyl)-4-oxo-4H-chromen-6-yl)oxy)acetic acid hydrochloride] gave an IC50 of 300 to 1000 nM.
Compound `CN(C)C(=O)COc1ccc2oc(CN)cc(=O)c2c1` [Compound 1-35, 2-((2-(Aminomethyl)-4-oxo-4H-chromen-6-yl)oxy)-N,N-dimethylacetamide hydrochloride] has an IC50 of 300 to 1000 nM.
With `COC(=O)[C@H]1CCN(C(=O)c2ccc3oc(CN)cc(=O)c3c2)C1` [Compound 1-36, Methyl (S)-1-(2-(aminomethyl)-4-oxo-4H-chromene-6-carbonyl)pyrrolidine-3-carboxylate hydrochloride] the IC50 was over 1000 nM.
